For experiment [1], the system named is pre-let-7a-1 (RNA, miRNA) UUAGGGUCACACCCACCACUGGGAGAUAA
Nature of the experiment: microscale thermophoresis. The following applies: Na+ (185 mM NaCl, 8 mM Na2HPO4), no Mg2+; 1 mM EDTA, 0.05% Tween-20; 5 nM RNA.

In experiment [2] the test system is miRNA21 (RNA, miRNA) GUUGACUGUUGAAUCUCAUGGCAAC
Nature of the experiment: microscale thermophoresis. Conditions: Na+ (185 mM NaCl, 8 mM Na2HPO4), no Mg2+; 1 mM EDTA, 0.05% Tween-20; 5 nM RNA; compounds up to 100-300 µM. For orientation: Microscale thermophoresis detects binding through changes in fluorescence in a small temperature gradient.

The structures appear in SMILES notation.

In article PMC12631003 (2025) one finds K d and binding data, which are given here for four compounds.

Turning to `CCc1nc(C(N)=O)c(Nc2ccc(N3CCC(N4CCN(C)CC4)CC3)c(OC)c2)nc1NC1CCOCC1`, the K d in experiment [1] amounted to 29.4 µM. Besides, the binding result in experiment [2] is given as “no”. In experiment [1], `CN1CCN(c2ccc(C(=O)Nc3n[nH]c4ccc(Cc5cc(F)cc(F)c5)cc34)c(NC3CCOCC3)c2)CC1` returned a K d of 5.0 µM. Further, the binding result in experiment [2] is “no”. Consider `Cn1cnc2c(F)c(Nc3ccc(Br)cc3Cl)c(C(=O)NOCCO)cc21`, for which the K d in experiment [1] was found to be 217 µM. On the same count and under the same terms, with `N#CC[C@H](C1CCCC1)n1cc(-c2ncnc3[nH]ccc23)cn1` the figure was 82.4 µM.
